Test [1] concerns conscious dogs with pacing-induced DCM. The experiment in a line: Myocardial glucose uptake during hyperinsulinemic euglycemic clamp in conscious dogs with pacing-induced DCM. It is filed as in vivo. The following applies: basal and insulin-stimulated. The source says:
This provides glycolytic ATP without further increases in mitochondrial ROS production. […] This provides the rationale for the use of the native peptide in the treatment of post-ischemic allograft injury.

For test [2], the system named is humans with acute myocardial infarction. As to the kind of experiment: Infusion at reperfusion in humans with acute myocardial infarction. The class given is in vivo. The source says:
Lower panel illustrates individual data. […] Lower panel illustrates individual data.
(§1) This mechanism involves improved ventricular relaxation which is known to be most sensitive to ATP depletion.

Test [3] deals with HIF-1a. As to the kind of experiment: HIF-1a induction in normal hearts. The following applies: intravenous continuous administration. It is filed as in vivo. The source says: The induction of this cyto-protective program is beneficial in the face of subsequent ischemic injury in allografts. p38 MAP kinase activation has been associated with the stabilization of praline residues which otherwise target the HIF-1a subunits to ubiquinization. The stabilization allows the subunits to form heterodimers which active a gene program of cytoprotection.

The subject of test [4] is conscious pigs with biventricular failure. The experiment in a line: Chronic conscious pig model of biventricular failure with impaired renal blood flow. The class given is in vivo. The settings on record: short term (2 hours) infusion, 1.5 pmol/kg/min. The source says:
FIG. 4, comprising FIG. 4A and 4B show impaired renal blood flow but not cardiac output in pigs with biventricular failure.
There is a model of biventricular heart failure in conscious pigs that is associated with reductions in renal blood flow and function. FIG. 3 illustrates the model and the perturbation in renal blood flow. This is an important model of cardio-renal syndrome in which renal and cardiac injury are found together. FIG. 4 illustrates a 50% reduction in renal blood flow without a reduction in cardiac output in conscious pigs with biventricular failure.

The subject of test [5] is conscious dogs. As to the kind of experiment: Recovery after coronary artery occlusion and reperfusion in conscious dogs. The following applies: 1.5 pmol/kg/min at the time of reperfusion following coronary artery occlusion. The class given is in vivo.
Source text: CBF and respective regional wall thickening responses to CAO and CAR. The CBF response (top) is characterized by reactive hyperemia followed by gradual return of flow to pre-occlusion levels in both control and GLP-1-treated animals. The different patterns of recovery of regional contractile function between the two groups are illustrated (bottom).
as §1

The subject of test [6] is patients with Class 3-4 heart failure. As to the kind of experiment: Administration to patients with Class 3-4 heart failure. The class given is in vivo, humans. The settings on record: administered for 5 weeks.

Ends that are not written are not given here.

For the substance “GLP-1 (9-36) amide (EGTFTSDVSSYLEGQAAKEFIAWLVKGR-NH2)”, the myocardial glucose uptake entry in test [1] is “increase myocardial glucose uptake independent of an increase in circulating insulin”.

Turning to Glucagon-like peptide-1 [GLP-1], the “requirement for inotropic and pressure support” value in test [2] (GLP-1 infusion, population not given) is “reduces the requirement for inotropic and pressure support”. Moreover, in test [3], the “HIF-1a mRNA” value is listed as “increases in HIF-1a mRNA” and the “expression of HIF-1a inducible genes, heme-oxygenase-1 (HO-1)” value is given as “increased expression of HIF-1a inducible genes, heme-oxygenase-1 (HO-1)”. Besides, in test [4], the GFR entry is “improvement in GFR”, the renal blood flow result is recorded as “returned renal blood flow to near normal levels” and the urinary sodium excretion entry is given as “increased urinary sodium excretion”.

Take “GLP-1 (7-36) amide (HAEGTFTSDVSSYLEGQAAKEFIAWLVKGR-NH2)”: the “recovery of left ventricular function” value in test [5] was “more rapid and complete recovery of left ventricular function”. Besides, in test [1], the myocardial glucose uptake entry is recorded as “increase myocardial glucose uptake independent of an increase in circulating insulin”. Besides, the “peri-infarct and global LV function” value in test [2] (1.5 pmol/kg/min at the time of reperfusion, humans with acute myocardial infarction, versus patients on comparable therapies without GLP-1) was “improved peri-infarct and global LV function”. The natriuresis result in test [6] is listed as “significant natriuresis that required reduction in diuretic doses”.

The values are drawn from patent publication US9950038B2, “Methods and compositions for inhibiting delayed graft function” (THE TRUSTEES OF THE UNIVERSIY OF PENNSYLVANIA, priority 2011, dated 2018).
